For series [1], the system named is Oct4-GFP transgenic MEF transfected with Oct4, Sox2, Klf4 and c-Myc. Briefly: CDy1 staining of cells at early stages of reprogramming (fluorescence microscopy). The series is classed as cell-based, mouse. The settings on record: incubated for one hour. As for the experimental part: Oct4-GFP transgenic MEF transfected with retrovirus expressing Oct4, Sox2, Klf4, and c-Myc were incubated with CDy1 at 3, 5, 7, and 9 dpi for one hour.
After excess CDy1 was washed out by replacing culture medium, fluorescent cell images were taken using fluorescence microscope.
At 3 and 5 dpi, any dramatic morphological differences between the cells were not observed by phase contrast bright field microscopy (FIG. 16).

The subject of the next series is human ESC (hESC) (BG01V). Briefly: Comparison of CDy1 and ALDEFLUOR staining in hESC. The settings on record: fluorescence microscopy. The series is classed as cell-based. As for the experimental part:
In this experiment, the cells cultured on 6-well plates were incubated with 1 μM ALDEFLUOR® for one hour at 37° C. and then washed with PBS three times before ALDEFLUOR® assay buffer was added. Bright field (“B.F”) and fluorescence (FITC filter for ALDEFLUOR® and TRITC filter for CDy1) images were taken using a Nikon ECLIPSE Ti fluorescence microscope (Scale bars, 100 μm).
BG01V cells cultured on MEF were selectively stained by CDy1. The expression of hESC marker TRA-1-60 in the CDy1-stained BG01V cells was detected by immunofluorescence staining (Scale bar, 100 μm).
Among the few fluorescent dyes used for stem cell staining (Zijlmans et al., “Modification of Rhodamine Staining Allows Identification of Hematopoietic Stem Cells with Preferential Short-term or Long-term Bone Marrow-Repopulating Ability,” Proc. Natl. Acad. Sci. USA, 92:8901-8905 (1995), which is hereby incorporated by reference in its entirety) is ALDEFLUOR® which employs a fluorescent substrate BODIPY-aminoacetaldehyde for aldehyde dehydrogenase (ALDH)1A1 (Storms et al., “Isolation of Primitive Human Hematopoietic Progenitors on the Basis of Aldehyde Dehydrogenase Activity,” Proc. Natl. Acad. Sci. USA, 96: 9118-9123 (1999), which is hereby incorporated by reference in its entirety). […]

The next series concerns iPSC. Nature of the series: CDy1 staining of iPSC colonies generated from Oct4-GFP transgenic mouse MEF. The series is classed as cell-based. As for the experimental part:
The retroviral packaging cell, PlatE cell, was maintained in DMEM containing 10% FBS, 100 U/ml penicillin, 100 μg/ml streptomycin, 10 μg/mlblasticidin S, and 1 μg/ml puromycin. For the generation of retroviruses, 40 μg of each retroviral vector expressing each mouse Oct4, Sox2, Klf4, and c-Myc was transfected together using Lipofectamine™ 2000 (Invitrogen, Carlsbad, Calif.) into PlatE cells plated at a density of 8×10^6 cells/10 cm cell culture dish and cultured overnight in DMEM containing 10% FBS. Medium was changed five hours after transfection to normal maintenance medium and incubated further in a humidified atmosphere of 5% CO2 and 95% air at 37° C. Culture supernatant was harvested 48 hours after transfection, filtered through a 0.45 μm syringe filter, concentrated by using amicon ultra-15 Centrifugal filter units (Millipore, Billerica, Mass.), and stored at −80° C. until use. For reprogramming, MEFs prepared from E13.5 B6; CBA-Tg(Pou5f1-EGFP)2Mnn/J mouse (Jackson Laboratory, Bar Harbor, Me.) embryo were infected with retrovirus mixture eight hours later. Polybrene (Sigma-Aldrich, St. Louis, Mo.) was added at a concentration of 10 μg/ml to increase virus adsorption. Infected MEFs were harvested 48 hours later by trypsinization and plated onto mytomycin C treated MEF feeder cells. The cells were maintained in mESC culture medium that was changed every day until designated time points.
The reprogramming was performed in a 6-well culture dish by retroviral introduction of four transcriptions factors: Oct4, Sox2, Klf4, and c-Myc (Takahashi et al., “Induction of Pluripotent Stem Cells from Mouse Embryonic and Adult Fibroblast Cultures by Defined Factors,” Cell, 126(4):663-676 (2006), which is hereby incorporated by reference in its entirety). iPSC generation was verified by GFP expression, alkaline phosphatase assay, and immunostaining of SSEA-1 at 17 days post infection (“dpi”). […] When the 155 colonies grown in 6-well plate cells were treated with CDy1 at 17 dpi, 101 colonies (65%) were both CDy1 and GFP positive, 26 (17%) were CDy1-only positive, 4 (3%) were GFP-only positive and 24 (15%) were negative both for CDy1 and GFP, despite the fact that the morphology of the colonies was indistinguishable (FIG. 9).
In a cell culture treated with CDy1 at an earlier time point of iPSC generation (10 dpi), increasing numbers of CDy1-stained colonies started to show GFP signal during the following days (FIG. 10A). To perform a more systematic analysis, the cells were stained with CDy1 at 2 dpi (i.e., when iPSC was not distinguishable by any means) and the CDy1 and GFP signals were tracked by daily acquisition of cell images using an ImageXpress^MICRO system. At 10 dpi, when small colonies started to appear, 342 CDy1-positive but GFP-negative colonies were selected and their GFP expression was followed until 25 dpi. An increasing number of colonies started to express GFP during this period, and 338 (99%) out of the 342 tracked colonies were GFP-positive at 25 dpi (FIG. 10B).

Each structure is given as a SMILES string.

Experimental findings from patent publication US8735150B2, “Methods for detecting embryonic stem cells, induced pluripotent stem cells, or cells undergoing reprogramming to produce induced pluripotent stem cells” (New York University, priority 2010, dated 2014) are described below.

`CCCCN(CCCC)c1ccc2c(-c3cccc(CN4CCOCC4)c3)c3ccc(=N)cc-3oc2c1` [CDy1]: in series [1], the “staining at 3 and 5 dpi” value is “scattered single cells stained”; the “staining at 7 and 9 dpi” value is on record as “some of the clusters were stained”. Moreover, the “staining of hESC” value with human ESC (hESC) (BG01V) was “stained both”. In addition, the “earliest CDy1 staining of the cells that expressed GFP at 12 dpi” value in the series with iPSC is 6 dpi. The “differences in number of GFP-positive colonies or cell morphology compared to untreated iPSC” value in the series with iPSC (10 to 25 dpi) is reported as “no detectable differences”. The “selective staining of iPSC colony” value with iPSC (17 dpi) is “selectively stained the iPSC colony”. Further, in the series with iPSC (17 dpi, of 155 colonies), the “colonies CDy1-only positive (number)” value is on record as 26, the “colonies CDy1-only positive (percent)” value is given as 17%, the “colonies GFP-only positive (number)” value amounted to 4 and the “colonies GFP-only positive (percent)” value came out at 3%. In the series with iPSC (17 dpi, of 155 colonies), the “colonies both CDy1 and GFP positive (number)” value is 101; the “colonies both CDy1 and GFP positive (percent)” value is reported as 65%; the “colonies negative both for CDy1 and GFP (number)” value came to 24; the “colonies negative both for CDy1 and GFP (percent)” value came to 15%. Moreover, the “colonies GFP-positive at 25 dpi (percent)” value with iPSC (of 342 CDy1-positive but GFP-negative colonies selected at 10 dpi) was determined as 99%. The “colonies GFP-positive at 25 dpi (number)” value in the series on iPSC (of 342 CDy1-positive but GFP-negative colonies selected at 10 dpi, stained at 2 dpi) came out at 338.
